Test results published in PubChem BioAssay (NCI).
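Protocol summary: plate cells (96-well), add compound at 5 concentrations, incubate 48 h, interpolate endpoints linearly. TGI is the concentration that stops growth completely.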

Legend:
Assay in all cases: inhibition of tumour cell growth, NCI panel, 48 h
NCI/ADR-RES ovarian = system: NCI/ADR-RES ovarian
NCI-H460 lung = system: NCI-H460 lung
OVCAR-8 ovarian = system: OVCAR-8 ovarian
SF-539 CNS = system: SF-539 CNS
MDA-MB-231 breast = system: MDA-MB-231 breast
SR leukemia = system: SR leukemia
A549 NSCLC = system: A549 NSCLC
KM12 colon = system: KM12 colon
SN12C renal = system: SN12C renal
SK-OV-3 ovarian = system: SK-OV-3 ovarian
MCF7 breast = system: MCF7 breast
SF-268 CNS = system: SF-268 CNS
OVCAR-4 ovarian = system: OVCAR-4 ovarian
SK-MEL-28 melanoma = system: SK-MEL-28 melanoma
NCI-H23 lung = system: NCI-H23 lung
NCI-H226 lung = system: NCI-H226 lung
UACC-257 melanoma = system: UACC-257 melanoma
HCC-2998 colon = system: HCC-2998 colon
A498 renal = system: A498 renal
HT29 colon = system: HT29 colon
K-562 leukemia = system: K-562 leukemia
DU-145 prostate = system: DU-145 prostate
OVCAR-3 ovarian = system: OVCAR-3 ovarian
UACC-62 melanoma = system: UACC-62 melanoma
RPMI-8226 leukemia = system: RPMI-8226 leukemia
LOX IMVI melanoma = system: LOX IMVI melanoma
TK-10 renal = system: TK-10 renal
RXF 393 renal = system: RXF 393 renal
IGROV1 ovarian = system: IGROV1 ovarian
MALME-3M melanoma = system: MALME-3M melanoma
U251 CNS = system: U251 CNS
MOLT-4 leukemia = system: MOLT-4 leukemia
HCT-15 colon = system: HCT-15 colon
COLO 205 colon = system: COLO 205 colon
HOP-62 NSCLC = system: HOP-62 NSCLC
UO-31 renal = system: UO-31 renal
ACHN renal = system: ACHN renal
786-0 renal = system: 786-0 renal
HL-60(TB) leukemia = system: HL-60(TB) leukemia
SNB-75 CNS = system: SNB-75 CNS
SNB-19 CNS = system: SNB-19 CNS
SK-MEL-5 melanoma = system: SK-MEL-5 melanoma
BT-549 breast = system: BT-549 breast
HCT-116 colon = system: HCT-116 colon
EKVX NSCLC = system: EKVX NSCLC
SW-620 colon = system: SW-620 colon
MDA-N = system: MDA-N
MDA-MB-435 = system: MDA-MB-435
CAKI-1 renal = system: CAKI-1 renal
CCRF-CEM leukemia = system: CCRF-CEM leukemia
T-47D breast = system: T-47D breast
OVCAR-5 ovarian = system: OVCAR-5 ovarian
SK-MEL-2 melanoma = system: SK-MEL-2 melanoma
M14 melanoma = system: M14 melanoma
HS 578T breast = system: HS 578T breast
PC-3 prostate = system: PC-3 prostate
SF-295 CNS = system: SF-295 CNS

COc1ccc(-c2nc(Nc3ccccc3)sc2Cc2sc(Nc3ccccc3)nc2-c2ccc(OC)cc2)cc1
TGI (NCI/ADR-RES ovarian): > 100 µM
TGI (NCI-H460 lung): > 100 µM
TGI (OVCAR-8 ovarian): > 100 µM
TGI (SF-539 CNS): > 100 µM
TGI (MDA-MB-231 breast): > 100 µM
TGI (SR leukemia): > 100 µM
TGI (A549 NSCLC): > 100 µM
TGI (KM12 colon): > 100 µM
TGI (SN12C renal): > 100 µM
TGI (SK-OV-3 ovarian): > 100 µM
TGI (MCF7 breast): > 100 µM
TGI (SF-268 CNS): > 100 µM
TGI (OVCAR-4 ovarian): > 100 µM
TGI (SK-MEL-28 melanoma): > 100 µM
TGI (NCI-H23 lung): > 100 µM
TGI (NCI-H226 lung): > 100 µM
TGI (UACC-257 melanoma): > 100 µM
TGI (HCC-2998 colon): > 100 µM
TGI (A498 renal): > 100 µM
TGI (HT29 colon): > 100 µM
TGI (K-562 leukemia): > 100 µM
TGI (DU-145 prostate): > 100 µM
TGI (OVCAR-3 ovarian): > 100 µM
TGI (UACC-62 melanoma): > 100 µM
TGI (RPMI-8226 leukemia): > 100 µM
TGI (LOX IMVI melanoma): > 100 µM
TGI (TK-10 renal): > 100 µM
TGI (RXF 393 renal): 26.8 µM
TGI (IGROV1 ovarian): > 100 µM
TGI (MALME-3M melanoma): > 100 µM
TGI (U251 CNS): > 100 µM
TGI (MOLT-4 leukemia): > 100 µM
TGI (HCT-15 colon): > 100 µM
TGI (COLO 205 colon): > 100 µM
TGI (HOP-62 NSCLC): > 100 µM
TGI (UO-31 renal): > 100 µM
TGI (ACHN renal): > 100 µM
TGI (786-0 renal): > 100 µM
TGI (HL-60(TB) leukemia): 52 µM
TGI (SNB-75 CNS): > 100 µM
TGI (SNB-19 CNS): > 100 µM
TGI (SK-MEL-5 melanoma): > 100 µM
TGI (BT-549 breast): > 100 µM
TGI (HCT-116 colon): > 100 µM
TGI (EKVX NSCLC): > 100 µM
TGI (SW-620 colon): > 100 µM
TGI (MDA-N): > 100 µM
TGI (MDA-MB-435): > 100 µM
TGI (CAKI-1 renal): > 100 µM
TGI (CCRF-CEM leukemia): > 100 µM
TGI (T-47D breast): > 100 µM
TGI (OVCAR-5 ovarian): > 100 µM

CC(Cn1c2c(c3cc(O)ccc31)CCc1ccc(O)cc1-2)N(C)C (stereo unspecified)
TGI (NCI/ADR-RES ovarian): 41.9 µM
TGI (NCI-H460 lung): 31.8 µM
TGI (OVCAR-8 ovarian): 33.2 µM
TGI (SF-539 CNS): 32.1 µM
TGI (MDA-MB-231 breast): 59.4 µM
TGI (SR leukemia): > 100 µM
TGI (KM12 colon): 29.9 µM
TGI (SN12C renal): 68.9 µM
TGI (SK-OV-3 ovarian): 77 µM
TGI (MCF7 breast): 36.3 µM
TGI (SF-268 CNS): 53.2 µM
TGI (NCI-H23 lung): 41.2 µM
TGI (NCI-H226 lung): 37.3 µM
TGI (SK-MEL-2 melanoma): 31.1 µM
TGI (UACC-257 melanoma): 44.6 µM
TGI (A498 renal): 53.7 µM
TGI (HT29 colon): 35.8 µM
TGI (M14 melanoma): 28.8 µM
TGI (K-562 leukemia): > 100 µM
TGI (OVCAR-3 ovarian): 30.1 µM
TGI (UACC-62 melanoma): 35.9 µM
TGI (RPMI-8226 leukemia): > 100 µM
TGI (LOX IMVI melanoma): 81 µM
TGI (TK-10 renal): 37.1 µM
TGI (RXF 393 renal): 53.2 µM
TGI (IGROV1 ovarian): 29.1 µM
TGI (MALME-3M melanoma): 30.8 µM
TGI (U251 CNS): > 100 µM
TGI (MOLT-4 leukemia): > 100 µM
TGI (HCT-15 colon): 30.2 µM
TGI (HOP-62 NSCLC): 31 µM
TGI (HS 578T breast): 46 µM
TGI (UO-31 renal): 28.3 µM
TGI (ACHN renal): 30.1 µM
TGI (786-0 renal): 35.9 µM
TGI (HL-60(TB) leukemia): > 100 µM
TGI (SNB-75 CNS): 51.2 µM
TGI (SNB-19 CNS): 37.4 µM
TGI (BT-549 breast): 36.8 µM
TGI (HCT-116 colon): > 100 µM
TGI (EKVX NSCLC): 52.9 µM
TGI (PC-3 prostate): 27.6 µM
TGI (SW-620 colon): 55 µM
TGI (MDA-N): 48.1 µM
TGI (MDA-MB-435): 41 µM
TGI (CAKI-1 renal): 52.8 µM
TGI (CCRF-CEM leukemia): > 100 µM
TGI (SF-295 CNS): 45.4 µM
TGI (OVCAR-5 ovarian): 37.2 µM
